In patent US20230000842A1, “METHODS OF TREATING CARTILAGE DISORDERS THROUGH INHIBITION OF CLK AND DYRK” (SAMUMED, LLC, priority 2019, published 2023):

Experiments:
[1] = biological target: CLK2 kinase (Homo sapiens, UniProt P49760); test: CLK2 kinase activity assay (Z-lyte FRET); type: biochemical; conditions: Z-lyte Ser/Thr 6 peptide, 60 μM ATP, 1 h at room temperature;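 also: FRET read-out as coumarin to fluorescein emission ratio, unphosphorylated peptide as 0% and phosphorylated peptide as 100% controls, duplicate reactions, non-linear regression fit of dose-response curves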
Protocol: This is a non-radioactive assay using fluorescence resonance energy transfer (FRET) between coumarin and fluorescein to detect kinase activity which is represented as a ratio of coumarin emission/fluorescein emission.
The mixture was allowed to incubate with the representative compounds for one hour at room temperature. All reactions were performed in duplicate. Unphosphorylated (“0% Control”) and phosphorylated (“100% control”) forms of Ser/Thr 6 served as control reactions. Additionally, an 11-point dose-response curve of Staurosporine (1 μM top) was run to serve as a positive compound control.
After incubation, Development Reagent A was diluted in Development Buffer then added to the reaction and allowed to further incubate for one hour at room temperature.
Dose-response curves were generated and inhibitory concentration (IC50) values were calculated using non-linear regression curve fit in the Dotmatics' Studies Software (Bishops Stortford, UK).

[2] = biological target: CLK3 kinase (Homo sapiens, UniProt P49761); test: CLK3 kinase activity assay (Z-lyte FRET); type: biochemical; conditions: Z-lyte Ser/Thr 18 peptide, 156 μM ATP, 1 h at room temperature;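 also: kinase activity read as coumarin/fluorescein emission ratio by FRET, unphosphorylated peptide as 0% and phosphorylated peptide as 100% control, values from non-linear regression of dose-response curves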
[3] = system: Wnt pathway activity (SW480 colon carcinoma cells stably expressing the Sp5-Luc reporter); test: Wnt pathway activity screening assay (Sp5-Luc reporter gene assay); conditions: Homo sapiens, SW480, Table 4; SW480 cells stably expressing Sp5-Luc reporter, 10-point dose-response from 10 μM, 36 to 48 hours
[4] = system: primary human mesenchymal stem cells (hMSCs); test: Chondrogenesis screening using primary human mesenchymal stem cells; type: cell-based; conditions: Homo sapiens, Mesenchymal stem cells, hMSC chondrogenesis; for EC50: concentration required to induce 50% levels of chondrogenesis with TGF-β3 as positive control, read-out: Conc (nM) of 50% TGF-β3 activity; for Emax: maximum activity relative to TGF-β3 (10 ng/mL) positive control, read-out: Max. Activity as % TGF-β3 activity
Source text: Representative compounds were screened using primary human mesenchymal stem cells (hMSCs) to determine their ability to induce chondrogenesis (process by which cartilage is developed).
Human Mesenchymal Stem Cell Culture: Primary human mesenchymal stem cells (hMSCs) were purchased from Lonza (Walkersville, Md.) and expanded in Mesenchymal Stem Cell Growth Media (Lonza). Cells between passage 3 and 6 were used for the experiments.
Area of nodules in each well was normalized to the average of 3 DMSO treated wells on the same plate using Excel (Microsoft Inc.). The normalized averages (fold change over DMSO) of 2 or 3 replicate wells for each compound concentration were calculated. Due to solubility limitations of some of the compounds, curve fitting was incomplete leading to inaccurate EC50 determinations.
Using TGF-β3 as a positive control, the concentration of representative compounds required to induce 50% levels of chondrogenesis is reported. In addition, the maximum activity of each compound and the respective dose that each compound reached maximum chondrogenesis activity is reported.

Chain of CLK3 kinase (P49761 whole entry): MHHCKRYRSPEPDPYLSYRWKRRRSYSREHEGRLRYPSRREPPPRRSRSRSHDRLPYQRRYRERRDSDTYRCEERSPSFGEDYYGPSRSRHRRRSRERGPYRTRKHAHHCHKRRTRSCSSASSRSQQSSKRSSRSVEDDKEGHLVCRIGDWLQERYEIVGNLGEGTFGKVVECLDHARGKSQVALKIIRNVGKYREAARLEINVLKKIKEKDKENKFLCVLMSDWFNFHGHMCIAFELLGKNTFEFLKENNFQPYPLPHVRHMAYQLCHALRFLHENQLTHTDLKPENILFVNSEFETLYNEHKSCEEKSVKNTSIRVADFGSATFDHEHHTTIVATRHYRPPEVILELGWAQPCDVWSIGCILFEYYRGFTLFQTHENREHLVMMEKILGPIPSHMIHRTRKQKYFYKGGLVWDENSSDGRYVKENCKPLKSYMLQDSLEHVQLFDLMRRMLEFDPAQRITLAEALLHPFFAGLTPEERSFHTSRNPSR
Chain of CLK2 kinase (P49760 whole entry): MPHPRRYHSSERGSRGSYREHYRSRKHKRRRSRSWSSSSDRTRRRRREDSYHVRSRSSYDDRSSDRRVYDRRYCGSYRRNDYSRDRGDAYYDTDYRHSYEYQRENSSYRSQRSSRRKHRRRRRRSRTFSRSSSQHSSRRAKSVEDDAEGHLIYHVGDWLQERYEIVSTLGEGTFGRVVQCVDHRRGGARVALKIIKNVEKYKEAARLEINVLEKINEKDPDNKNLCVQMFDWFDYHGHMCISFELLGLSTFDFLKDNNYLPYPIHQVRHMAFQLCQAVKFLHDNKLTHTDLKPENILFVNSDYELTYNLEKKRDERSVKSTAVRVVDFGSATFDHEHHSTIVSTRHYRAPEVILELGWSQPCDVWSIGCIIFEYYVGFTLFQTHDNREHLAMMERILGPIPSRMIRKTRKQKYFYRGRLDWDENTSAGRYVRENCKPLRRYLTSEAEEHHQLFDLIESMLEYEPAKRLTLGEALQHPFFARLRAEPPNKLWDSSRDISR

EC50 [1] | EC50 [2] | EC50 [3] | EC50 [4] | SMILES | Emax [4]
20 nM | 4930 nM | 22.3 nM | 10 nM | COc1cncc(C(=O)Nc2c[nH]nc2C(=O)Nc2ccc(OCCN3CCCC3)nc2)c1 [compound 5] | 106%
14 nM | 2360 nM | 681 nM | – | COc1cncc(C(=O)Nc2c[nH]nc2C(=O)Nc2ccc(N3CCNCC3)nc2)c1 [compound 7] | 90.7%
2 nM | 361 nM | 253 nM | 30 nM | Cc1n[nH]c2ccc(-c3cncc(OC[C@H](N)Cc4ccccc4)n3)cc12 [compound 52] | 52.1%
2 nM | 581 nM | 1090 nM | – | Cc1cc2[nH]nc(C(=O)Nc3ccc(CN4CCCC4)cc3)c2cc1-c1cccnc1 [compound 60] | –
1 nM | 34 nM | 37 nM | – | CN1CCN(Cc2ccc(NC(=O)c3n[nH]c4ccc(-c5cccnc5)cc34)cn2)CC1 [compound 62] | –
1 nM | 343 nM | 68 nM | – | O=C(Nc1cnccc1NC(=O)C1CC1)c1n[nH]c2ccc(-c3cccnc3)cc12 [compound 63] | –
1 nM | 21 nM | 106 nM | – | O=C(Nc1ccnnc1)c1n[nH]c2ccc(-c3cccnc3)cc12 [compound 64] | –
1 nM | 36 nM | 330 nM | – | CN(C)Cc1cncc(NC(=O)c2n[nH]c3ccc(-c4cncc(CN5CCCC5)c4)cc23)c1 [compound 70] | –
2 nM | 109 nM | 50 nM | 30 nM | COc1ccc(NC(=O)c2n[nH]c3ccc(-c4cncc(CN5CCCC5)c4)cc23)cn1 [compound 71] | 63.1%
2 nM | 22 nM | 5 nM | 100 nM | COc1ccc(NC(=O)c2n[nH]c3ccc(-c4cncc(CN5CCC(F)(F)C5)c4)cc23)cn1 [compound 72] | 72.2%
1 nM | 11 nM | 4 nM | 30 nM | CN1CCN(c2ccc(NC(=O)c3n[nH]c4ccc(-c5cncc(CN6CCC(F)(F)C6)c5)cc34)cn2)CC1 [compound 73] | 80.9%
1 nM | 44 nM | 57 nM | 30 nM | Cc1ccc(NC(=O)c2n[nH]c3ccc(-c4cncc(CN5CCCCC5)c4)cc23)cn1 [compound 78] | 102%
1 nM | 352 nM | 59 nM | 300 nM | Cc1cncc(NC(=O)c2n[nH]c3ccc(-c4cncc(CN5CCCCC5)c4)cc23)c1 [compound 79] | 68.3%
3 nM | 93 nM | 36.4 nM | 100 nM | O=C(Nc1ccnc(C(F)(F)F)c1)c1n[nH]c2ccc(-c3cncc(CN4CCCCC4)c3)cc12 [compound 80] | 69%
1 nM | 32 nM | 15 nM | 300 nM | COc1ccc(NC(=O)c2n[nH]c3ccc(-c4cncc(CN5CCCCC5)c4)cc23)cn1 [compound 81] | 138%
13 nM | 616 nM | 41 nM | 10 nM | CC(C)Oc1ccc(NC(=O)c2n[nH]c3ccc(-c4cncc(CN5CCCCC5)c4)cc23)cn1 [compound 82] | 51.9%
1 nM | 14 nM | 65 nM | – | CN(C)CCN(C)c1ccc(NC(=O)c2n[nH]c3ccc(-c4cncc(CN5CCCCC5)c4)cc23)cn1 [compound 84] | –
7 nM | 1800 nM | 25 nM | – | CC(C)CC(=O)Nc1ccncc1NC(=O)c1n[nH]c2ccc(-c3cncc(CN4CCCCC4)c3)cc12 [compound 85] | 45.4%
3 nM | 1270 nM | 120 nM | 30 nM | O=C(Nc1cnccc1NC(=O)C1CC1)c1n[nH]c2ccc(-c3cncc(CN4CCCCC4)c3)cc12 [compound 86] | 53.7%
1 nM | 22 nM | 49 nM | – | O=C(Nc1ccc(N2CCC(O)CC2)nc1)c1n[nH]c2ccc(-c3cncc(CN4CCCCC4)c3)cc12 [compound 91] | –

EC50 [1] | EC50 [2] | EC50 [3] | EC50 [4] | SMILES | Emax [4]
1 nM | 89 nM | 2.8 nM | 2700 nM | C[C@@H]1CN(c2ccc(NC(=O)c3n[nH]c4ccc(-c5cncc(CN6CCCCC6)c5)cc34)cn2)C[C@H](C)O1 [compound 92] | 129%
5 nM | 71 nM | 101 nM | – | O=C(Nc1ccc(-c2ccccc2)nc1)c1n[nH]c2ccc(-c3cncc(CN4CCCCC4)c3)cc12 [compound 93] | –
1 nM | 11 nM | 40 nM | – | O=C(Nc1ccnnc1)c1n[nH]c2ccc(-c3cncc(CN4CCCCC4)c3)cc12 [compound 94] | –
1 nM | 46 nM | 289 nM | – | O=C(Nc1cnccn1)c1n[nH]c2ccc(-c3cncc(CN4CCCCC4)c3)cc12 [compound 95] | –
1 nM | 60 nM | 125 nM | – | O=C(Nc1ccc2c(c1)OCCO2)c1n[nH]c2ccc(-c3cncc(CN4CCCCC4)c3)cc12 [compound 97] | –
1 nM | 86 nM | 7 nM | 30 nM | CC1CCN(Cc2cncc(-c3ccc4[nH]nc(C(=O)Nc5cccnc5)c4c3)c2)CC1 [compound 98] | 94.4%
1 nM | 99 nM | 335 nM | – | Cc1ncc(NC(=O)c2n[nH]c3ccc(-c4cnc(C)n4C)cc23)s1 [compound 115] | –
5 nM | 48 nM | 6 nM | 100 nM | O=C(Nc1nc2c(-c3cccc(F)c3)cncc2[nH]1)c1n[nH]c2ccc(-c3cccnc3)cc12 [compound 119] | 157%
23 nM | 61 nM | 4.6 nM | 30 nM | CCC(=O)Nc1cncc(-c2ccc3[nH]nc(-c4nc5c(-c6cccc(F)c6)cncc5[nH]4)c3c2)c1 [compound 120] | 139%
3 nM | 30 nM | > 10000 nM | – | CCC(=O)Nc1cncc(-c2ccc3[nH]nc(-c4nc5c(-c6cccc(F)c6)ccnc5[nH]4)c3n2)c1 [compound 121] | 29.3%
11 nM | 6960 nM | 18.8 nM | 10 nM | CCCC(=O)Nc1cncc(-c2cc3c(-c4nc5c(-c6cccc(F)c6)nccc5[nH]4)n[nH]c3cn2)c1 [compound 122] | 67.8%
37 nM | 218 nM | 1.4 nM | – | CC(C)CC(=O)Nc1cncc(-c2ccc3[nH]nc(-c4nc5c(-c6cccc(F)c6)ccnc5[nH]4)c3c2)c1 [compound 124] | 61%
12 nM | 7330 nM | 11 nM | 10 nM | O=C(Nc1cncc(-c2cnc3[nH]nc(-c4nc5c(-c6cccc(F)c6)cncc5[nH]4)c3c2)c1)C1CC1 [compound 126] | 148%
6 nM | 42 nM | 9 nM | – | O=C(Nc1cncc(-c2cnc3[nH]nc(-c4nc5c(-c6cccc(F)c6)cncc5[nH]4)c3c2)c1)N1CCOCC1 [compound 127] | 96.8%
1 nM | 55 nM | 253 nM | – | CN(C)CCOc1cncc(-c2cnc3[nH]nc(-c4nc5c(-c6cccc(F)c6)nccc5[nH]4)c3c2)c1 [compound 151] | –
3 nM | 40 nM | 268 nM | – | CC(C)CC(=O)Nc1cncc(-c2ccc3[nH]nc(-c4nc5c(N6CCN(C)CC6)cccc5[nH]4)c3c2)c1 [compound 217] | –
2 nM | 18 nM | 146 nM | – | Nc1cncc(-c2ccc3[nH]nc(-c4cc5c(-c6cccnc6)nccc5[nH]4)c3c2)c1 [compound 347] | –
1 nM | 6 nM | 14 nM | – | CN1CCC(n2cc(C(=O)Nc3cc4cc(-c5cnn(C)c5)ccc4cn3)cn2)CC1 [compound 561] | –
3 nM | 78 nM | 381 nM | – | O=C(Nc1cc2cc(-c3cncc(NC4CCNCC4)n3)ccc2cn1)C1CC(F)(F)C1 [compound 600] | –
7 nM | 53 nM | 383 nM | – | O=C(Nc1cc2cc(-c3cncc(NCC4(F)CNC4)n3)ncc2cn1)C1CC1 [compound 615] | –

SMILES | EC50 [1] | EC50 [2] | EC50 [3] | EC50 [4] | Emax [4]
CC(C)Nc1cncc(-c2ccc3cnc(NC(=O)C4CCN(CCF)CC4)cc3c2)n1 [compound 598] | 8 nM | 52 nM | 178 nM | – | –
CNc1nc(NCc2ncccn2)c2c(-c3ccc4ncccc4c3)c[nH]c2n1 [compound 624] | 10 nM | 26 nM | 73.3 nM | – | –
